Experimental data published in patent US20240115670A1, “FIBROBLAST ACTIVATION PROTEIN MODULATION TO ALTER IMMUNE CELL MIGRATION AND TUMOR INFILTRATION” (Georgetown University, priority 2021, published 2024).

Key:
[1] = tested on: NK92-GFP cells; assay: NK92-GFP extravasation from zebrafish blood vessels; type: in vivo; details: fish bathed in 10 uM Cpd60 vs vehicle; 1 hour after injection
Experimental: The zebrafish embryos were anesthetized with 0.0003016% tricaine (Pentair Aquatic Eco-Systems, Sigma-Aldrich, St. Louis, MO, USA) in the Georgetown-Lombardi Animal Shared Resource and positioned within our zebrafish stereotax on a proprietary microinjection plate. NK92-GFP cells were injected into the pericardium using an air driven Picospritzer Ha microinjector (General Valve/Parker Hannifin) under a stereoscope. After transplantation, embryos were allowed to recover for 1 hour at 33° C. Confocal imaging was performed on an Olympus IX-71 inverted microscope with a color CCD camera in the Georgetown-Lombardi Microscopy Shared Resource. Fluorescent imaging was performed on Keyence BZ-X. Images were taken at 10× across multiple z-stacks. […] NK extravasation quantification was performed by counting the number of GFP cells outside red vasculature. NK extravasation quantification was performed blinded to the treatment conditions. […]
Zebrafish studies were conducted in accordance with NIH guidelines for the care and use of laboratory animals and were approved by the Georgetown University Institutional Animal Care and Use Committee. […] NK extravasation quantification was performed by counting the number of GFP cells outside red vasculature. NK extravasation quantification was performed blinded to the treatment conditions. […]

[2] = tested on: NK92-GFP cells; assay: NK92-GFP infiltration into PDAC tumor spheroids; type: cell-based, human; details: 10 uM Cpd60, 4 hours
Experimental: PSC or PANC-1 spheroids were generated by plating 10,000 cells in a 0.1% agarose coated U-bottomed 96-well plate. PSC+PANC-1 spheroids were generated by plating 5,000 cells of each cell type. Aggregation was promoted by centrifuging the cells at 1000 rpm for 5 minutes. Cells incubated overnight at 37° C. The next day, 1,000 NK92-GFP cells were added per well and incubated for 4 hours at 37° C. Spheroids were imaged using the Olympus IX-71 Inverted Epifluorescent Microscope at 5×. Images were analyzed in FIJI. All images underwent identical contrast enhancement and background reduction. Then a line was drawn from spheroid edge to spheroid center and GFP intensity along that line was measured. Graphs of resulting data and statistical analysis were generated in Graphpad Prism 9.

[3] = tested on: NK92-GFP cells; assay: NK92-GFP infiltration into cell clusters embedded in 3D matrix; type: cell-based, human; details: 10 uM Cpd60
Experimental: (§1) 3D clusters were generated, embedded and stained as previously described. In brief, clusters were generated by plating 1,000 cells per well into 96-well Nunclon Sphera low adhesion plates (Thermo Scientific, cat #174925) and incubated overnight at 37° C. The following day, 6 clusters were embedded into an ECM containing 2,000 NK cells and plated into one well of a Nunc Lab-Tek II 8-well chamber slide (ThermoScientific, cat #154534PK). The ECM mixture consisted of 20% growth factor reduced Matrigel (Corning, 10-12 mg/ml stock concentration, #354230) and 80% rat tail collagen type I at 3 mg/mL (gibco, A1048301). Cells were either imaged for the following 24 hours every 30 minutes using the Zeiss LSM800 scanning confocal microscope or allowed to incubate overnight at 37° C. After 24 hours, cells in matrix were fixed with 5.4% formalin for 1 hour, permeabilized with 0.5% Triton-X and blocked using goat serum. For invasion assays, NK-92-GFP cells were stained with anti-GFP (ThermoFisher, cat #A-11122). For the cell lysis assays clusters were stained using anti-cleaved caspase 3 (Cell Signaling, cat #9661). Hoechst 33342, phalloidin, and secondary antibodies labeled with Alexa Fluor 488 nm, 546 nm, 647 nm, or 680 nm (Invitrogen) were used.
3D clusters were generated, embedded and stained as previously described (34, 35). In brief, clusters were generated by plating 1,000 cells per well into 96-well Nunclon Sphera low adhesion plates (Thermo Scientific, cat #174925) and incubated overnight at 37° C. The following day, 6 clusters were embedded into an ECM containing 2,000 NK cells were plated into one well of a Nunc Lab-Tek II 8-well chamber slide (ThermoScientific, cat #154534PK). To ensure equal distribution of NK cells in Matrigel, the NK cells were first suspended in the Matrigel stock, which was then aliquoted for individual cluster embedding. The ECM mixture consisted of 20% growth factor reduced Matrigel (Corning, 10-12 mg/ml stock concentration, #354230) and 80% rat tail collagen type I at 3 mg/mL (Gibco, A1048301). […]

[4] = tested on: PANC-1 cell clusters; assay: NK cell lysis of PANC-1 clusters in 3D matrix (cleaved caspase 3); type: cell-based, human; details: 10 uM Cpd60
Experimental: as §1
3D clusters were generated, embedded and stained as previously described (34, 35). […]

[5] = tested on: FAP; details: mouse, in vivo; cited from earlier work

N#C[C@@H]1CC(F)(F)CN1C(=O)CNC(=O)c1ccnc2ccccc12 [Cpd60]
NK cell extravasation from the blood vessels [1]: significantly reduced
NK cell content in PANC-1 spheroids ([2]; any region): no effect
NK cell content in PSC spheroids ([2]; mid-edge and mid-center regions): significantly reduced
NK cell content in PSC+PANC-1 spheroids ([2]; mid-edge region): significantly reduced
NK92-GFP cell infiltration into PANC-1 clusters embedded in matrix ([3]; 24-hour coculture): significantly reduced
NK92-GFP cell infiltration into PSC clusters embedded in matrix ([3]; 24-hour coculture): significantly reduced
cluster size ([3]; 80% collagen/20% Matrigel): no effect
PANC-1 cell apoptosis (cleaved caspase 3) in 3D cultures with NK92 ([4]; NK92 cells): significantly reduced
donor NK cell lysis of PANC-1 cells in 3D ([4]; NK cells from two donors, normalized to cluster area): reduced
FAP inhibition in murine models [5]: selectively and completely inhibits FAP
